Data set [1] can be described thus: Metabolic stability in cynomolgus monkey liver microsomes. Format: ADME, Macaca fascicularis, Microsome. For orientation: Liver microsomes are a subcellular fraction often used to study metabolism.
Data set [2] relates to Liver microsome. Kind of data set: Metabolic stability in dog liver microsomes. Format: ADME, Canis lupus familiaris.
Data set [3] deals with Liver microsome. Kind of data set: Metabolic stability in rat liver microsomes. Format: ADME.
Data set [4] is described as follows: Inhibition of CYP450 (unknown origin). As to conditions: human. Format: ADME.
The nature of data set [5]: Aqueous solubility of the compound. The class given is physicochemical. The settings on record: buffer.
The next data set has as its system Caco-2. Put plainly: Permeability across human Caco2 cells. Format: ADME, cell-based. In general terms: Caco-2 monolayers are a common model of the intestinal barrier.
Data set [6] deals with Mus musculus. Kind of data set: Reduction in clinical symptoms in MOG peptide experimental autoimmune encephalitis (EAE) mouse multiple sclerosis disease model at 3 mg/kg, po qd. The class given is functional, organism-based. Further details: dose 3 mg/kg.
The test system of data set [7] is Mus musculus. Kind of data set: Induction of lymphopenia in po dosed C57BL/6 mouse measured at 6 hrs post-dose relative to vehicle-treated control. Format: functional, organism-based.
Data set [8] deals with Mus musculus. Kind of data set: Induction of lymphopenia in C57BL/6 mouse at 0.1 mg/kg, po at 6 hrs post-dose relative to vehicle-treated control. The class given is functional, organism-based. Further details: dose 0.1 mg/kg.
Data set [9] has as its system Liver microsome. Put plainly: Metabolic stability in human liver microsomes. Format: ADME.
In a further data set the test system is Cynomolgus monkey. Kind of data set: Induction of […] in po dosed cynomolgus monkey. The class given is functional, Macaca fascicularis.
Data set [10] in a line: Cmax in cynomolgus monkey at 3.8 mg/kg, po administered as single dose. Format: ADME, organism-based, Macaca fascicularis. More on the design: dose 3.8 mg/kg, route oral. As to conditions: in vivo.
The test system of data set [11] is Plasma. Put plainly: Plasma concentration in rat assessed as phosphorylated compound at 3 mg/kg, po administered as single dose. Format: ADME, organism-based. More on the design: dose 3 mg/kg, route oral. The settings on record: in vivo.
The subject of data set [12] is Plasma. Put plainly: Plasma concentration in cynomolgus monkey assessed as phosphorylated compound at 3.8 mg/kg, po administered as single dose. Format: ADME, organism-based, Macaca fascicularis. More on the design: dose 3.8 mg/kg, route oral. The settings on record: in vivo.
Data set [13] relates to Plasma. Put plainly: Plasma concentration in dog assessed as phosphorylated compound at 5 mg/kg, po administered as single dose. As to conditions: in vivo. Format: ADME, organism-based, Canis lupus familiaris. Further details: dose 5 mg/kg, route oral.
For data set [14], the species on record is Homo sapiens. Kind of data set: Selectivity ratio for S1P3R (unknown origin) to S1P1R (unknown origin).
Data set [15] deals with T1, Sphingosine 1-phosphate receptor 1 (Homo sapiens, UniProt P21453). Put plainly: Agonist activity at S1P1R (unknown origin) assessed as [33P] binding activity.
The target in data set [16] is T2, Sphingosine 1-phosphate receptor 3 (Homo sapiens, UniProt Q99500). Put plainly: Agonist activity at S1P3R (unknown origin) assessed as [33P] binding activity.
Target sequence in this assay (Q99500 whole entry, looked up): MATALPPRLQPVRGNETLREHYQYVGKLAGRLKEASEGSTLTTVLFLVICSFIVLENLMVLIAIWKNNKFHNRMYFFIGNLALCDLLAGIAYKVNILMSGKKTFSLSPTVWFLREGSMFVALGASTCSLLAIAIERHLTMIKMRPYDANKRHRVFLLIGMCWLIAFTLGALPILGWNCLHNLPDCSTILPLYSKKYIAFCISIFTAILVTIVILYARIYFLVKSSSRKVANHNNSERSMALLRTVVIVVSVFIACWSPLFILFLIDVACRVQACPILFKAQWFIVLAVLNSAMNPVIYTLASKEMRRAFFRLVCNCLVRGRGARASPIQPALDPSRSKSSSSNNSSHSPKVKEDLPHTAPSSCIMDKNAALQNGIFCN
Data set [17] is filed under the species Homo sapiens. Put plainly: Selectivity ratio for human Sphk1 to human Sphk2.
Data set [18] is filed under the species Homo sapiens. Kind of data set: Selectivity ratio of EC50 for S1P3R (unknown origin) to EC50 for S1P1R (unknown origin).
Data set [19] addresses Sphingosine 1-phosphate receptor 5 (Homo sapiens, UniProt Q9H228). Put plainly: Agonist activity at human S1P5R expressed in HEK293T cells assessed as [35S]GTPgammaS binding after 30 mins by scintillation counting. The class given is functional, cell-based, HEK-293T. A general note: Binding of GTPγS marks nucleotide exchange on a G protein.
Data set [20] deals with T3, Sphingosine 1-phosphate receptor 4 (Homo sapiens, UniProt O95977).
T3 sequence (O95977 whole entry): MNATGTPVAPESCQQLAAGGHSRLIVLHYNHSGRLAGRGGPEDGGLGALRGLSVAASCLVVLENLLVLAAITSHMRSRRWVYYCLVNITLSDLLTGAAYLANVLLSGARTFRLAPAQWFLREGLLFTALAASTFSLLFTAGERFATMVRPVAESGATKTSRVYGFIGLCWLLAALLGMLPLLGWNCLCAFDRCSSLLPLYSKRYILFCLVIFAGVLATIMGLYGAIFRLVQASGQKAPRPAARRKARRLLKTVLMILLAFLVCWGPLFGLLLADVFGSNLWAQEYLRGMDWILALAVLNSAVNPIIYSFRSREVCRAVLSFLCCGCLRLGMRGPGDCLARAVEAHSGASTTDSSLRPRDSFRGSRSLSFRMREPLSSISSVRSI
Put plainly: Agonist activity at human S1P4R expressed in HEK293T cells assessed as [35S]GTPgammaS binding after 30 mins by scintillation counting. Format: functional, cell-based, HEK-293T.

Data set [21] concerns the target T2, Sphingosine 1-phosphate receptor 3. Kind of data set: Agonist activity at human S1P3R expressed in HEK293T cells assessed as [35S]GTPgammaS binding after 30 mins by scintillation counting. The class given is functional, cell-based, HEK-293T.
Target sequence in this assay (Q99500 whole entry): as the sequence (Q99500 whole entry, looked up) above
Data set [22] addresses T1, Sphingosine 1-phosphate receptor 1. Kind of data set: Agonist activity at human S1P1R expressed in HEK293T cells assessed as [35S]GTPgammaS binding after 30 mins by scintillation counting. Format: functional, cell-based, HEK-293T.
In data set [23] the test system is Mus musculus. Put plainly: Induction of lymphopenia in C57BL/6 mouse at 10 mg/kg, po at 6 hrs post-dose.

Values after ≈ are worked out from the molar mass of the structure shown. Active and inactive are the calls of the source. The rule behind the calls is not given here.

T1 sequence (P21453 whole entry): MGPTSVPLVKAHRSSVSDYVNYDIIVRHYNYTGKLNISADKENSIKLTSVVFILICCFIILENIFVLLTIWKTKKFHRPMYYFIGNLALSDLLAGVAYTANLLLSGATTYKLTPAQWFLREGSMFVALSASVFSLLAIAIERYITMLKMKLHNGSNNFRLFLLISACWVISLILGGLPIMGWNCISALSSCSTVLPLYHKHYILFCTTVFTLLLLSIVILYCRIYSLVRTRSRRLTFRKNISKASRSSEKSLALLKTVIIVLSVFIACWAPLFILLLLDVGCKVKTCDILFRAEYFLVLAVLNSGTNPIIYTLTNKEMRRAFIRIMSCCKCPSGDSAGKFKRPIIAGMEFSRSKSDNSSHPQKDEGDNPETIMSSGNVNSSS
Sphingosine 1-phosphate receptor 5, sequence (Q9H228 whole entry): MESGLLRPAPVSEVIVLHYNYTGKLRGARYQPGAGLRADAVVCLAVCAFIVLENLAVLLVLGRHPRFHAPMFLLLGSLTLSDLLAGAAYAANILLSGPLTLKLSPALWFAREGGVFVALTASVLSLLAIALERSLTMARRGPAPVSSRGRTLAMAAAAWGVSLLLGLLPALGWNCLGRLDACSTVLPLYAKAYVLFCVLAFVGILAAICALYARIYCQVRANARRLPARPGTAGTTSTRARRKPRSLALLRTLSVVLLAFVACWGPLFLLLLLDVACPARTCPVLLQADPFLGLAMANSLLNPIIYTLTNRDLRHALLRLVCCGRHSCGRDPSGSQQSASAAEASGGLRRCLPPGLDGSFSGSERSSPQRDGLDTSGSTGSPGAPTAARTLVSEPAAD

Consider `CCCCCCCCOc1ccc(-c2cnc([C@@](C)(N)CO)s2)cc1C(F)(F)F`, for which the Stability entry (in data set [1]; in the data set with Liver microsome [2]; with Liver microsome [3]) was “Stable” in each case. Further, the “inhibition (INH)” value in data set [4] is “Not Active”. Moreover, in data set [5], the solubility entry is reported as “soluble”. Further, in the data set on Caco-2, the permeability entry is recorded as “permeable”. Moreover, the outcome with Mus musculus [6] and in the data set on Mus musculus [8] was Active. Further, the Activity result with Mus musculus [7] was “Dose-dependent effect”.

As to `CCCCCCCCOc1ccc(-c2nnc([C@@](C)(N)CO)s2)cc1C(F)(F)F`, the Stability result (with Liver microsome [9]; in [1]; with Liver microsome [2]; in the data set with Liver microsome [3]) was “Stable” each time. For the same molecule, in the data set on Cynomolgus monkey, the EC90 (in general, the concentration needed for an effect of 90%) was 0.0162 µg/mL (≈ 0.0375 µM). The Cmax (in general, the highest concentration seen after dosing) in data set [10] came to 50.9 ng/mL. For the same molecule, the Cp in the data set with Plasma [11], in the data set with Plasma [12] and with Plasma [13] was 10 ng/mL each time. In addition, the “inhibition (INH)” value in data set [4] was “Not Active”. Besides, the solubility entry in [5] is given as “soluble”. Moreover, in the data set on Caco-2, the permeability result is on record as “permeable”. For the same molecule, the result with Mus musculus [6] and in the data set with Mus musculus [8] was Active. Further, the Activity entry with Mus musculus [7] was “Dose-dependent effect”.

Turning to `C[C@](N)(COP(=O)(O)O)c1ncc(-c2ccc(OCc3ccc(-c4ccccc4)cc3)c(C(F)(F)F)c2)s1`, in the data set listed under Homo sapiens [14], the Selectivity ratio stood at 1190. The results for the Activity in data set [15] and in [16] were 0.73 nM and 0.867 µM, respectively.

On to `CCCCCCCCOc1ccc(-c2noc([C@@](C)(N)COP(=O)(O)O)n2)cc1C(F)(F)F`, for which the Selectivity ratio in the data set filed under Homo sapiens [14] is greater than 5260. Besides, the results for the Activity in [15] and in data set [16] were 1.9 nM and greater than 10 µM, respectively.

Regarding `C[C@](N)(COP(=O)(O)O)c1nc(-c2ccc(OCc3ccc(-c4ccccc4)cc3)c(C(F)(F)F)c2)c[nH]1`, the Selectivity ratio in the data set listed under Homo sapiens [14] is 8860. The Activity is 0.83 nM in [15] and 7.35 µM in data set [16].

Regarding `CCCCCCCCc1ccc(CCC(N)(CO)CO)cc1`, the Selectivity ratio in the data set listed under Homo sapiens [17] came to 30. Further, the outcome with Mus musculus [6] was Active.

As to `CCCCCCCCOc1ccc(-c2cc([C@@](C)(N)COP(=O)(O)O)on2)cc1C(F)(F)F`, in the data set listed under Homo sapiens [14], the Selectivity ratio came to 1210. Further, the results for the Activity in [15] and in [16] were 0.14 nM and 0.17 µM, respectively.

In the case of `CCCCCCCCOc1ccc(-c2cnc([C@@](C)(N)COP(=O)(O)O)[nH]2)cc1C(F)(F)F`, the Selectivity ratio in the data set listed under Homo sapiens [14] came to 3340. The Activity in [15] was 1.46 nM; in [16], 4.87 µM.

`N[C@@H](COP(=O)(O)O)c1nc(-c2ccc(OCc3ccc(-c4ccccc4)cc3)c(C(F)(F)F)c2)c[nH]1`: the Selectivity ratio in the data set listed under Homo sapiens [14] came to 2170. Also, the Activity in data set [15] amounted to 0.3 nM; in data set [16], 0.65 µM.

`CCCCCCCCOc1ccc(-c2nnc([C@@](C)(N)COP(=O)(O)O)o2)cc1C(F)(F)F`: the Selectivity ratio in the data set filed under Homo sapiens [14] was greater than 359. Also, the Activity was 27.8 nM in data set [15] and greater than 10 µM in data set [16].

`NC(CO)(COP(=O)(O)O)c1nc(-c2ccc(OCc3ccc(-c4ccccc4)cc3)c(C(F)(F)F)c2)c[nH]1` (centres undefined): in the data set filed under Homo sapiens [14], the Selectivity ratio is greater than 4350. Moreover, the Activity is 2.3 nM in [15] and greater than 10 µM in data set [16].

On to `CCCCCCCCOc1ccc(-c2nnc([C@@](C)(N)COP(=O)(O)O)s2)cc1C(F)(F)F`, for which the Ratio EC50 in the data set filed under Homo sapiens [18] is greater than 11500. The concentration for a half-maximal effect (EC50) – broadly, the concentration at which the effect is half-maximal – in [19] is 0.66 nM; in data set [20] it was 4.57 nM; in data set [21] it was greater than 3000 nM; in data set [22], 0.26 nM. The Selectivity ratio in the data set listed under Homo sapiens [14] came out at 3290. Also, the Activity in [15] turned out to be 0.52 nM; in the data set on Mus musculus [23] it was 119%; in data set [16] it was 1.9 µM.

For `CCCCCCCCCCCCC/C=C/[C@@H](O)[C@@H](N)COP(=O)(O)O`, the results for the EC50 in [20], in data set [21] and in data set [22] were 13 nM, 3.94 nM and 4.25 nM, respectively.

For `C[C@](N)(COP(=O)(O)O)c1nc(-c2ccc(OCc3ccc(-c4ccccc4)cc3)c(C(F)(F)F)c2)cs1`, the Selectivity ratio in the data set filed under Homo sapiens [14] was greater than 6250. The Activity in [15] was 1.6 nM; in [16], greater than 10 µM.

For the molecule `CCCCCCCCOc1ccc(-c2cnc([C@@](C)(N)COP(=O)(O)O)s2)cc1C(F)(F)F`, the Ratio EC50 in the data set filed under Homo sapiens [18] was greater than 6800. For the same molecule, the EC50 in [19] is 2 nM; in [20], 3.6 nM; in data set [21] it was greater than 3000 nM; in data set [22], 0.44 nM. Also, the Selectivity ratio in the data set filed under Homo sapiens [14] stood at 1670. Also, the Activity is 0.18 nM in data set [15], 98% in the data set on Mus musculus [23] and 0.3 µM in data set [16].

Take `C[C@](N)(COP(=O)(O)O)c1nnc(-c2ccc(OCc3ccc(-c4ccccc4)cc3)c(C(F)(F)F)c2)s1`: the Selectivity ratio in the data set filed under Homo sapiens [14] was determined as 2540. The Activity was 1.77 nM in [15] and 4.5 µM in [16].

For `Cc1nc([C@@](C)(N)COP(=O)(O)O)[nH]c1-c1ccc(OCc2ccc(-c3ccccc3)cc2)c(C(F)(F)F)c1`, the Selectivity ratio in the data set listed under Homo sapiens [14] was 11900. In addition, the Activity in [15] came out at 0.65 nM; in [16], 7.67 µM.

Take `Cc1oc([C@@](C)(N)COP(=O)(O)O)nc1-c1ccc(OCc2ccc(-c3ccccc3)cc2)c(C(F)(F)F)c1`: the Selectivity ratio in the data set filed under Homo sapiens [14] is greater than 5000. Also, the Activity in data set [15] is 2.1 nM; in data set [16], greater than 10 µM.

As to `CCCCCCCCOc1ccc(-c2cc([C@@](C)(N)COP(=O)(O)O)[nH]n2)cc1C(F)(F)F`, the Selectivity ratio in the data set listed under Homo sapiens [14] is greater than 12000. Moreover, the Activity in [15] was 0.83 nM; in [16], greater than 10 µM.

Turning to `C[C@](N)(COP(=O)(O)O)c1ncc(-c2ccc(OCc3ccc(-c4ccccc4)cc3)c(C(F)(F)F)c2)o1`, the Selectivity ratio in the data set listed under Homo sapiens [14] was greater than 8000. Also, the Activity was 1.1 nM in data set [15] and greater than 10 µM in data set [16].

The values above are taken from ChEMBL document CHEMBL3102761, “Discovery of Clinical Candidate GSK1842799 As a Selective S1P1 Receptor Agonist (Prodrug) for Multiple Sclerosis” (ACS Med Chem Lett, 2013).
